Data on one compound can be found in EPA's ToxValDB 9.5 (doi:10.2903/j.efsa.2009.1341).

≈ marks a conversion by molar mass, not a printed value.

One series has as its system Rattus norvegicus. Particulars: for LD50: acute.
The next series concerns Daphnia magna. The settings on record: chronic/long-term; duration: 21 days; mortality.
The next series deals with Canidae. The settings on record: short-term; duration: 2 weeks; Dog Other.
The test system of the next series is Apis mellifera. The settings on record: acute; duration: 48 hours; inhalation; unspecified; mortality.
For the next series, the system named is Mus musculus. Particulars: chronic; duration: 2 years; inhalation; histopathology: nonneoplastic.
For the next series, the system named is Pimephales promelas. Particulars: chronic/long-term; duration: 33 days; growth.
The next series has as its system Cyprinodon variegatus. Particulars: acute; duration: 96 hours; mortality.

Consider `ClC=CCCl` [1,3-Dichloropropene], for which the LD50 with Rattus norvegicus (inhalation, mortality) was determined as 2.7 mg/L; in the series with Rattus norvegicus (oral, mortality) it was 130 mg/kg. The NOAEL in the series on Rattus norvegicus (chronic, duration: 2 years, oral, diet, histopathology: neoplastic) was 2.5 mg/kg-day; in the series with Rattus norvegicus (chronic, oral, mortality), 2.5 mg/kg-day; with Rattus norvegicus (reproduction developmental, inhalation, reproduction) it was below 0.0908 mg/L; in the series on Rattus norvegicus (subchronic, duration: 13 weeks, inhalation, histopathology: nonneoplastic), 9.72 mg/kg-day; in the series on Rattus norvegicus (subchronic, duration: 90 days, oral, mortality), 5 mg/kg-day; in the series with Canidae it was 20 mg/kg-day. Further, in the series with Mus musculus, the no observed adverse effect level (NOAEL) was found to be 1.1 mg/kg-day. Besides, the NOEC with Daphnia magna came to 0.0701 mg/L; in the series with Tagia sp. (chronic/long-term, duration: 56 days, reproduction), 770 mg/kg; with Apis mellifera it was 115 mg/m3; with Pimephales promelas, 0.032 mg/L. Further, the LC50 amounted to 55.6 mg/kg with Tagia sp. (acute, duration: 14 days, mortality) and 0.87 µg/mL (≈ 7.84 µM) in the series with Cyprinodon variegatus.

What is called NOAEL is the highest tested level that showed no adverse finding.
